Results published in article PMC4823724 (Scientific Reports, 2016).

How the values were obtained:
[1] = biological target: T1, (UniProt G7TDB2); experiment: biochemical
T1 construct: gene XOC_2102

[2] = biological target: T2, XOC_4190ΔG
T2 construct: gene XOC_4190

[3] = biological target: T3, (UniProt G7TKC9); experiment: biochemical
T3 construct: gene XOC_4190
T3 sequence (G7TKC9 1-656 limits assumed): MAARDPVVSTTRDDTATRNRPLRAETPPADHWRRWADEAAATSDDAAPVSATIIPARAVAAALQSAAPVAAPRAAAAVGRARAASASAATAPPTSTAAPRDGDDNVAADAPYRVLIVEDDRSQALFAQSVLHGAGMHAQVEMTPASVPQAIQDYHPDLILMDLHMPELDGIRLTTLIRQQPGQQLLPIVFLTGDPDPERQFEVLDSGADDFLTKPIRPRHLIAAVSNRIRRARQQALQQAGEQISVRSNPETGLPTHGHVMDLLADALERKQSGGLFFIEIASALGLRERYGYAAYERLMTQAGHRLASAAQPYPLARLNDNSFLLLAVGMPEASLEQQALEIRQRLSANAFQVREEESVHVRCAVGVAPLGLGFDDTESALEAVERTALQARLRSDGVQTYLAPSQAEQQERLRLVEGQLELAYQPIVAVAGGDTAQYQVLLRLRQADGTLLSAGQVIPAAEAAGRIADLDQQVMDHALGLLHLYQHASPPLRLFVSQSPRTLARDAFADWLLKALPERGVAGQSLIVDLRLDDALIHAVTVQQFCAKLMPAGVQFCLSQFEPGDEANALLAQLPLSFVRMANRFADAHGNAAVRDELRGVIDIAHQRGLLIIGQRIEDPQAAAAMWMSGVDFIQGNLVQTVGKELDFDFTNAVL

T1 sequence (G7TDB2 1-689): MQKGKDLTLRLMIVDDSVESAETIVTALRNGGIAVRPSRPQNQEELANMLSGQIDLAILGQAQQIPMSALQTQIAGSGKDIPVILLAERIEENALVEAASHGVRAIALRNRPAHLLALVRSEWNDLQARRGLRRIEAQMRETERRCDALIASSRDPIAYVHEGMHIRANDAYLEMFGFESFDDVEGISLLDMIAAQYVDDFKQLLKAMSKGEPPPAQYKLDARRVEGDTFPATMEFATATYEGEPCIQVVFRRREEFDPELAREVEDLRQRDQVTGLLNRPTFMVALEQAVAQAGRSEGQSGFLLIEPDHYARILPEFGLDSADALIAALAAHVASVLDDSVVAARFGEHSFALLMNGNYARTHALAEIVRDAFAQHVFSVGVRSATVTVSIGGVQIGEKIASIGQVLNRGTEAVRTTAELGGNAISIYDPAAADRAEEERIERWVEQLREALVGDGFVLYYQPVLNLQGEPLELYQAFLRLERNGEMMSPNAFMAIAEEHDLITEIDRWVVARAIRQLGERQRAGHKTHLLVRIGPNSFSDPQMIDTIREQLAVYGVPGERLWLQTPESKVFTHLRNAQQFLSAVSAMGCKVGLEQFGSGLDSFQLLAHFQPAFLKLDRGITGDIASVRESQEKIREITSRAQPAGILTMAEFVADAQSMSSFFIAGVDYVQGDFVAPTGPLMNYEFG

Nc1nc2c(ncn2[C@@H]2O[C@@H]3COP(=O)(O)O[C@H]4[C@@H](O)[C@H](n5cnc6c(=O)[nH]c(N)nc65)O[C@@H]4COP(=O)(O)O[C@H]3[C@H]2O)c(=O)[nH]1 [c-di-GMP]
Kd [1]: 2.9 ± 0.13 µM
Kd [2]: 4.46 ± 0.28 µM
Kd [3]: 4.59 ± 0.36 µM
